Measurements taken from PMC10023787, “Trio-pharmacophore DNA-encoded chemical library for simultaneous selection of fragments and linkers” (Nature Communications, 2023).
Read-outs that look alike come from different tables or passages of the source. One block for each compound: values may come before it.

Legend:
[1] = biological target: T1, MMP-2 (Homo sapiens, UniProt P08253); assay: MMP-2 inhibition assay (fluorogenic peptide substrate); type: biochemical
T1 construct: purchased Sino Biological 10082-HNAH
T1 sequence (P08253 110-660): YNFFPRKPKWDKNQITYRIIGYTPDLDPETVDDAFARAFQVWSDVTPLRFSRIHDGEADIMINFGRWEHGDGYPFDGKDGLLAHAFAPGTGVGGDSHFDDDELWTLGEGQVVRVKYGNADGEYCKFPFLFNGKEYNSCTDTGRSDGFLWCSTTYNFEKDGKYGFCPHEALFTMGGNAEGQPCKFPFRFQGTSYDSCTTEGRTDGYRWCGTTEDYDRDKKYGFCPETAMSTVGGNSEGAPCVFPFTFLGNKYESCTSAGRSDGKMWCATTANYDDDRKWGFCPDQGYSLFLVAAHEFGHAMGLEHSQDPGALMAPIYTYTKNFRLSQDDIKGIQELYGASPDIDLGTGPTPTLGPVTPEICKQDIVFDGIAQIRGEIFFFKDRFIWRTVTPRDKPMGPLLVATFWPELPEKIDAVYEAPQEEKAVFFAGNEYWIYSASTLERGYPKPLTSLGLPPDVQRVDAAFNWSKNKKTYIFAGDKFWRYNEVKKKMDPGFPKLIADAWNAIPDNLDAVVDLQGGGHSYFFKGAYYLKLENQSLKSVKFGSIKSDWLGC
Procedure: (§1) The inhibition by the small molecule compounds against MMP-2/MMP-9 was measured using an assay probing the enzyme proteolytic activity on the substrate DNP-Pro-Leu-Gly-Met-Trp-Ser-Arg (Enzo Life Sciences, USA). All assays were performed in the assay buffer containing 50 mM Tris, 100 mM NaCl. 5 mM CaCl2, and 0.1% Brij 35, pH 7.5. Human proMMP-2 and proMMP-9 were purchased from Sino biological (Germany). The proMMPs were activated by 1 mM APMA in the assay buffer at 37 °C for 2 h. After activation, MMP-2 was diluted to 6.5 nM of final assay concentration, and MMP-9 was diluted by the buffer to reach 10 nM of final assay concentration. In each well, 49 μl of enzyme solution was incubated with 1 μl of compounds of series of concentration (nM-mM in DMSO) at RT for 30 min. 2 μl of the FRET substrate was added right before the measurement at a final concentration of 25 μM. The rate of hydrolysis was monitored by quantifying the emission at 360 nm (ex: 280 nm). The emission was measured with intervals of the 30 s for 30 min with Synergy H1 Plate Reader (Agilent, USA). The measurements were done in triplicate. […] Then, curves were plotted as a function of the concentration of the inhibitor against the relative enzyme activity. Vmax was derived from the detected […] signal for each concentration and logistic fitting was performed to obtain IC50 values using Origin 2019b (OriginLab).

[2] = biological target: T2, MMP-9 (Homo sapiens, UniProt P14780); assay: MMP-9 inhibition assay (fluorogenic peptide substrate); type: biochemical; design: remaining enzyme activity (% of control): scale not given here; settings: for IC50: n.d: not detected
T2 construct: purchased Sino Biological 10327-HNAH
T2 sequence (P14780 107-707 limits assumed): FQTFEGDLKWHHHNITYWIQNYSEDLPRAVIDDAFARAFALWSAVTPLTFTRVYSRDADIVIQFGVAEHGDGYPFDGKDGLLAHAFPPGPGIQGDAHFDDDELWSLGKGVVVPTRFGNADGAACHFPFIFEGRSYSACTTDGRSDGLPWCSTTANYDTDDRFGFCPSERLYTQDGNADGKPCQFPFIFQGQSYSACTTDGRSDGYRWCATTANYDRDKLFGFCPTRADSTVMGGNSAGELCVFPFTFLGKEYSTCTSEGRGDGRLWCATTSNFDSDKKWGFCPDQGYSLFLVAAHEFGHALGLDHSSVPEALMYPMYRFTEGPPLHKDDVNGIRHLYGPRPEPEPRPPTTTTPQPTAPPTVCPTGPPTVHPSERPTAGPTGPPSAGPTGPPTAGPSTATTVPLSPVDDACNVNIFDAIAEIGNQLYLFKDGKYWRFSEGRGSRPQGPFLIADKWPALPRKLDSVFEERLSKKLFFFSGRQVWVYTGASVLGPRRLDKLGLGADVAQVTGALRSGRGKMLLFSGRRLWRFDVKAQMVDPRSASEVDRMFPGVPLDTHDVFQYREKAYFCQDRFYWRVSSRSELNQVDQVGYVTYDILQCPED
Procedure: as §1

[3] = mean ± SE; n.d: not detected; Fig. 5d unit inferred, µM; read-out: IC50
[4] = Figure 5d; fragment combination joined by linker; n.d: not detected; read-out: MMP2 IC50
[5] = mean ± SE, Fig. 5e prints no unit, µM, read-out: IC50

Compound: O=C(CCC(=O)NCc1c[nH]nn1)NCCOCCOCCNC(=O)CNC(=O)NC12CC3CC(CC(C3)C1)C2 [66+787 Linker 10]
- remaining activity (%) ([1]; MMP-2; concentration 0.07 µM): 89.74
- remaining activity (%) ([1]; MMP-2; concentration 0.33 µM): 85.09
- remaining activity (%) ([1]; MMP-2; concentration 1.67 µM): 89.74
- remaining activity (%) ([1]; MMP-2; concentration 8.34 µM): 82.52
- remaining activity (%) ([1]; MMP-2; concentration 41.72 µM): 81.27
- remaining activity (%) ([1]; MMP-2; concentration 208.60 µM): 74.95
- remaining activity (%) ([1]; MMP-2; concentration 1043.00 µM): 25.65
- remaining activity (%) ([1]; MMP-2; concentration […]): 97.97
- IC50 [1, 3]: 578 ± 96 µM
- remaining enzyme activity (% of control) ([2]; MMP-9, concentration 0.07 µM): 99.26
- remaining enzyme activity (% of control) ([2]; MMP-9, concentration 0.33 µM): 98.95
- remaining enzyme activity (% of control) ([2]; MMP-9, concentration 1.67 µM): 95.42
- remaining enzyme activity (% of control) ([2]; MMP-9, concentration 8.34 µM): 94.84
- remaining enzyme activity (% of control) ([2]; MMP-9, concentration 41.72 µM): 86.90
- remaining enzyme activity (% of control) ([2]; MMP-9, concentration 208.60 µM): 67.40
- remaining enzyme activity (% of control) ([2]; MMP-9, concentration 1043.00 µM): 51.64

Compound: O=C(CCC(=O)NCc1c[nH]nn1)NCCOCCOCCNC(=O)CNC(=O)NC12CC3CC(CC(C3)C1)C2 [66_787 10]
- IC50 [1, 4]: 578 µM

Compound: O=C(CNC(=O)NC12CC3CC(CC(C3)C1)C2)NCc1c[nH]nn1 [66+787 Linker 1]
- remaining activity (%) ([1]; MMP-2; concentration 0.0156 µM): 93.33
- remaining activity (%) ([1]; MMP-2; concentration 0.08 µM): 91.88
- remaining activity (%) ([1]; MMP-2; concentration 0.39 µM): 89.28
- remaining activity (%) ([1]; MMP-2; concentration 1.95 µM): 98.93
- remaining activity (%) ([1]; MMP-2; concentration 9.75 µM): 95.17
- remaining activity (%) ([1]; MMP-2; concentration 48.76 µM): 89.24
- remaining activity (%) ([1]; MMP-2; concentration 243.80 µM): 91.48
- remaining activity (%) ([1]; MMP-2; concentration 1219.00 µM): 64.77
- remaining enzyme activity (% of control) ([2]; MMP-9, concentration 0.08 µM): 90.03
- remaining enzyme activity (% of control) ([2]; MMP-9, concentration 0.39 µM): 107.83
- remaining enzyme activity (% of control) ([2]; MMP-9, concentration 1.95 µM): 106.33
- remaining enzyme activity (% of control) ([2]; MMP-9, concentration 9.75 µM): 95.98
- remaining enzyme activity (% of control) ([2]; MMP-9, concentration 48.76 µM): 92.70
- remaining enzyme activity (% of control) ([2]; MMP-9, concentration 243.80 µM): 85.14
- remaining enzyme activity (% of control) ([2]; MMP-9, concentration 1219.00 µM): 78.29

Compound: Cn1c(O)nc2cc(C(=O)NCCCCCCCCNC(=O)Cn3cnc4c(oc5ccccc54)c3=O)cnc21 [182+826 Linker 4]
- remaining activity (%) ([1]; MMP-2, concentration 0.12 µM): 92.61
- remaining activity (%) ([1]; MMP-2, concentration 0.49 µM): 95.31
- remaining activity (%) ([1]; MMP-2, concentration 1.95 µM): 84.32
- remaining activity (%) ([1]; MMP-2, concentration 7.81 µM): 92.35
- remaining activity (%) ([1]; MMP-2, concentration 31.25 µM): 84.58
- remaining activity (%) ([1]; MMP-2, concentration 125.00 µM): 82.25
- remaining activity (%) ([1]; MMP-2, concentration 500.00 µM): 42.45
- IC50 [1, 3]: 439 ± 56.5 µM
- remaining enzyme activity (% of control) ([2]; MMP-9, concentration 0.13 µM): 96.35
- remaining enzyme activity (% of control) ([2]; MMP-9, concentration 0.50 µM): 93.10
- remaining enzyme activity (% of control) ([2]; MMP-9, concentration 2.01 µM): 95.02
- remaining enzyme activity (% of control) ([2]; MMP-9, concentration 8.03 µM): 95.39
- remaining enzyme activity (% of control) ([2]; MMP-9, concentration 128.50 µM): 75.89
- remaining enzyme activity (% of control) ([2]; MMP-9, concentration 514.00 µM): 61.85

Continued, values first:

- IC50 [1, 4]: 45.9 µM
- IC50 ([2]; Figure 5d, fragment combination joined by linker, read-out: MMP9 IC50): 126 µM
Compound: O=C(CSCCNC(=O)Cn1cnc2c(oc3ccccc32)c1=O)NCc1c[nH]nn1 [182_787 24]

- remaining activity (%) ([1]; MMP-2; concentration 0.12 µM): 103.13
- remaining activity (%) ([1]; MMP-2; concentration 0.49 µM): 90.37
- remaining activity (%) ([1]; MMP-2; concentration 1.95 µM): 90.36
- remaining activity (%) ([1]; MMP-2; concentration 7.81 µM): 93.51
- remaining activity (%) ([1]; MMP-2; concentration 31.25 µM): 77.90
- remaining activity (%) ([1]; MMP-2; concentration 125.00 µM): 65.75
- remaining activity (%) ([1]; MMP-2; concentration 500.00 µM): 29.31
- IC50 [1, 3]: 210 ± 35.3 µM
- remaining enzyme activity (% of control) ([2]; MMP-9, concentration 0.12 µM): 100.00
- remaining enzyme activity (% of control) ([2]; MMP-9, concentration 0.49 µM): 80.27
- remaining enzyme activity (% of control) ([2]; MMP-9, concentration 1.95 µM): 83.12
- remaining enzyme activity (% of control) ([2]; MMP-9, concentration 7.81 µM): 88.09
- remaining enzyme activity (% of control) ([2]; MMP-9, concentration 31.25 µM): 65.00
- remaining enzyme activity (% of control) ([2]; MMP-9, concentration 125.00 µM): 27.22
- remaining enzyme activity (% of control) ([2]; MMP-9, concentration 500.00 µM): 12.87
- IC50 [2, 5]: 58.9 ± 10.5 µM
Compound: Cc1cc(=O)[nH]c(-n2nc(C)c(CCC(=O)NCCNC(=O)CC(=O)C=CCCCCNC(=O)c3cnc4c(c3)nc(O)n4C)c2C)n1 [693+826 Linker 12]

- remaining activity at 0.011 µM ([1]; MMP-2, concentration 0.011 µM; read-out: Mean (MMP-2, Supplementary fig 16)): 96.4%
- remaining activity at 0.0548 µM ([1]; MMP-2, concentration 0.0548 µM; read-out: Mean (MMP-2, Supplementary fig 16)): 104%
- remaining activity at 0.27 µM ([1]; MMP-2, concentration 0.27 µM; read-out: Mean (MMP-2, Supplementary fig 16)): 97.6%
- remaining activity at 1.37 µM ([1]; MMP-2, concentration 1.37 µM; read-out: Mean (MMP-2, Supplementary fig 16)): 90.8%
- remaining activity at 6.86 µM ([1]; MMP-2, concentration 6.86 µM; read-out: Mean (MMP-2, Supplementary fig 16)): 86.3%
- remaining activity at 34.28 µM ([1]; MMP-2, concentration 34.28 µM; read-out: Mean (MMP-2, Supplementary fig 16)): 48.6%
- remaining activity at 171.4 µM ([1]; MMP-2, concentration 171.40 µM; read-out: Mean (MMP-2, Supplementary fig 16)): 5.35%
- remaining activity at 857 µM ([1]; MMP-2, concentration 857.00 µM; read-out: Mean (MMP-2, Supplementary fig 16)): 0%
- IC50 [1, 3]: 33.3 ± 6.4 µM
- remaining activity at 0.0548 µM ([2]; MMP-9, concentration 0.0548 µM, read-out: Mean (MMP-9, Supplementary fig 16)): 95.4%
- remaining activity at 0.27 µM ([2]; MMP-9, concentration 0.27 µM, read-out: Mean (MMP-9, Supplementary fig 16)): 85.7%
- remaining activity at 1.37 µM ([2]; MMP-9, concentration 1.37 µM, read-out: Mean (MMP-9, Supplementary fig 16)): 87.6%
- remaining activity at 6.86 µM ([2]; MMP-9, concentration 6.86 µM, read-out: Mean (MMP-9, Supplementary fig 16)): 77.5%
- remaining activity at 34.28 µM ([2]; MMP-9, concentration 34.28 µM, read-out: Mean (MMP-9, Supplementary fig 16)): 52.4%
- remaining activity at 171.4 µM ([2]; MMP-9, concentration 171.40 µM, read-out: Mean (MMP-9, Supplementary fig 16)): 0%
- remaining activity at 857 µM ([2]; MMP-9, concentration 857.00 µM, read-out: Mean (MMP-9, Supplementary fig 16)): 0%
- IC50 [2, 5]: 35.3 ± 15 µM
Compound: O=C(CSCCNC(=O)c1cncc(O)c1)NCCNC(=O)Cn1cnc2c(oc3ccccc32)c1=O [182+828 Linker 24]
